Measured values from the NIST ThermoML archive (doi:10.1021/acs.jced.7b00107).
Where “and” joins values, the source holds several entries; their conditions need not be identical. Equal values may be shown once.

Assay: molar heat capacity at constant pressure
Details: 101.33 kPa, Small (less than 1 g) adiabatic calorimetry

Cl.NC12CC3CC(CC(C3)C1)C2 [1-aminoadamantane hydrochloride]
Details | molar heat capacity at constant pressure
5 K, Crystal 3 | 0.585 J/K/mol
5.01 K, Crystal 3 | 0.5801 J/K/mol
5.25 K, Crystal 3 | 0.6835 J/K/mol
5.49 K, Crystal 3 | 0.7946 J/K/mol
5.75 K, Crystal 3 | 0.916 J/K/mol
6 K, Crystal 3 | 1.051 J/K/mol
6.3 K, Crystal 3 | 1.22 J/K/mol
6.62 K, Crystal 3 | 1.42 J/K/mol
6.95 K, Crystal 3 | 1.642 J/K/mol
7.29 K, Crystal 3 | 1.891 J/K/mol
7.64 K, Crystal 3 | 2.153 J/K/mol
7.99 K, Crystal 3 | 2.437 J/K/mol
8.34 K, Crystal 3 | 2.747 J/K/mol
8.7 K, Crystal 3 | 3.078 J/K/mol
9.06 K, Crystal 3 | 3.426 J/K/mol
9.43 K, Crystal 3 | 3.794 J/K/mol
9.79 K, Crystal 3 | 4.174 J/K/mol
10 K, Crystal 3 | 4.396 J/K/mol
10.17 K, Crystal 3 | 4.569 J/K/mol
10.64 K, Crystal 3 | 5.116 J/K/mol
11.22 K, Crystal 3 | 5.781 J/K/mol
11.81 K, Crystal 3 | 6.479 J/K/mol
12.4 K, Crystal 3 | 7.208 J/K/mol
13 K, Crystal 3 | 7.971 J/K/mol
13.6 K, Crystal 3 | 8.754 J/K/mol
14.21 K, Crystal 3 | 9.533 J/K/mol
14.82 K, Crystal 3 | 10.38 J/K/mol
15 K, Crystal 3 | 10.64 J/K/mol
15.54 K, Crystal 3 | 11.36 J/K/mol
16.37 K, Crystal 3 | 12.56 J/K/mol
17.21 K, Crystal 3 | 13.72 J/K/mol
18.05 K, Crystal 3 | 14.85 J/K/mol
18.89 K, Crystal 3 | 15.98 J/K/mol
19.74 K, Crystal 3 | 17.1 J/K/mol
20 K, Crystal 3 | 17.48 J/K/mol
20.86 K, Crystal 3 | 18.62 J/K/mol
22.27 K, Crystal 3 | 20.49 J/K/mol
23.7 K, Crystal 3 | 22.36 J/K/mol
25 K, Crystal 3 | 24 J/K/mol
25.12 K, Crystal 3 | 24.15 J/K/mol
26.55 K, Crystal 3 | 25.89 J/K/mol
27.96 K, Crystal 3 | 27.53 J/K/mol
29.45 K, Crystal 3 | 29.22 J/K/mol
30 K, Crystal 3 | 29.84 J/K/mol
31.06 K, Crystal 3 | 31 J/K/mol
32.82 K, Crystal 3 | 32.84 J/K/mol
34.59 K, Crystal 3 | 34.6 J/K/mol
35 K, Crystal 3 | 34.98 J/K/mol
36.37 K, Crystal 3 | 36.26 J/K/mol
38.14 K, Crystal 3 | 37.9 J/K/mol
39.92 K, Crystal 3 | 39.49 J/K/mol
40 K, Crystal 3 | 39.56 J/K/mol
41.79 K, Crystal 3 | 41.08 J/K/mol
43.77 K, Crystal 3 | 42.73 J/K/mol
45 K, Crystal 3 | 43.74 J/K/mol
45.75 K, Crystal 3 | 44.38 J/K/mol
47.72 K, Crystal 3 | 45.9 J/K/mol
49.71 K, Crystal 3 | 47.41 J/K/mol
50 K, Crystal 3 | 47.63 J/K/mol
51.69 K, Crystal 3 | 48.89 J/K/mol
53.68 K, Crystal 3 | 50.26 J/K/mol
55.67 K, Crystal 3 | 51.64 J/K/mol
57.67 K, Crystal 3 | 52.99 J/K/mol
59.67 K, Crystal 3 | 54.32 J/K/mol
60 K, Crystal 3 | 54.53 J/K/mol
61.67 K, Crystal 3 | 55.65 J/K/mol
63.67 K, Crystal 3 | 56.94 J/K/mol
65.68 K, Crystal 3 | 58.17 J/K/mol
67.69 K, Crystal 3 | 59.45 J/K/mol
69.7 K, Crystal 3 | 60.69 J/K/mol
70 K, Crystal 3 | 60.92 J/K/mol
71.71 K, Crystal 3 | 62 J/K/mol
73.72 K, Crystal 3 | 63.24 J/K/mol
75.74 K, Crystal 3 | 64.48 J/K/mol
77.75 K, Crystal 3 | 65.74 J/K/mol
78.45 K, Crystal 3 | 66.2 J/K/mol
79.78 K, Crystal 3 | 66.97 J/K/mol
80 K, Crystal 3 | 67.11 J/K/mol
80.56 K, Crystal 3 | 67.47 J/K/mol
81.8 K, Crystal 3 | 68.23 J/K/mol
82.48 K, Crystal 3 | 68.62 J/K/mol
83.83 K, Crystal 3 | 69.44 J/K/mol
84.4 K, Crystal 3 | 69.79 J/K/mol
86.32 K, Crystal 3 | 71.01 J/K/mol
88.24 K, Crystal 3 | 72.23 J/K/mol
90 K, Crystal 3 | 73.32 J/K/mol
90.17 K, Crystal 3 | 73.44 J/K/mol
92.09 K, Crystal 3 | 74.67 J/K/mol
94.02 K, Crystal 3 | 75.9 J/K/mol
95.95 K, Crystal 3 | 77.18 J/K/mol
97.89 K, Crystal 3 | 78.44 J/K/mol
99.83 K, Crystal 3 | 79.74 J/K/mol
100 K, Crystal 3 | 79.81 J/K/mol
100.61 K, Crystal 3 | 80.3 J/K/mol
101.77 K, Crystal 3 | 81.04 J/K/mol
102.13 K, Crystal 3 | 81.29 J/K/mol
103.66 K, Crystal 3 | 82.26 J/K/mol
103.71 K, Crystal 3 | 82.35 J/K/mol
105.19 K, Crystal 3 | 83.26 J/K/mol
105.66 K, Crystal 3 | 83.7 J/K/mol
106.71 K, Crystal 3 | 84.46 J/K/mol
107.61 K, Crystal 3 | 85.07 J/K/mol
108.24 K, Crystal 3 | 85.55 J/K/mol
109.57 K, Crystal 3 | 86.53 J/K/mol
109.77 K, Crystal 3 | 86.68 J/K/mol
110 K, Crystal 3 | 86.83 J/K/mol
110.61 K, Crystal 3 | 87.3 J/K/mol
111.3 K, Crystal 3 | 87.82 J/K/mol
111.52 K, Crystal 3 | 88.04 J/K/mol
111.99 K, Crystal 3 | 88.23 J/K/mol
112.83 K, Crystal 3 | 89.22 J/K/mol
113 K, Crystal 3 | 89.28 J/K/mol
113.48 K, Crystal 3 | 89.74 J/K/mol
114.01 K, Crystal 3 | 90.15 J/K/mol
114.36 K, Crystal 3 | 90.6 J/K/mol
115.02 K, Crystal 3 | 91.42 J/K/mol
115.44 K, Crystal 3 | 92 J/K/mol
115.56 K, Crystal 3 | 91.67 J/K/mol
115.89 K, Crystal 3 | 92.64 J/K/mol
116.03 K, Crystal 3 | 92.78 J/K/mol
116.09 K, Crystal 3 | 92.4 J/K/mol
116.58 K, Crystal 3 | 93.36 J/K/mol
117.03 K, Crystal 3 | 94.87 J/K/mol
117.07 K, Crystal 3 | 94.53 J/K/mol
117.39 K, Crystal 3 | 96.19 J/K/mol
117.4 K, Crystal 3 | 96.04 J/K/mol
117.56 K, Crystal 3 | 95.93 J/K/mol
118.03 K, Crystal 3 | 98.29 J/K/mol
118.05 K, Crystal 3 | 97.56 J/K/mol
118.53 K, Crystal 3 | 100.2 J/K/mol
118.9 K, Crystal 3 | 105.3 J/K/mol
119.01 K, Crystal 3 | 104 J/K/mol
119.02 K, Crystal 3 | 105.6 J/K/mol
119.31 K, Crystal 3 | 108.3 J/K/mol
119.48 K, Crystal 3 | 110.1 J/K/mol
119.95 K, Crystal 3 | 112.9 J/K/mol
119.99 K, Crystal 3 | 111.4 J/K/mol
120 K, Crystal 2 | 94.01 J/K/mol
120 K, Crystal 3 | 94.01 J/K/mol
120.37 K, Crystal 2 | 108.5 J/K/mol
120.42 K, Crystal 2 | 108.5 J/K/mol
120.89 K, Crystal 2 | 104.8 J/K/mol
120.95 K, Crystal 2 | 106.2 J/K/mol
121.24 K, Crystal 2 | 112.4 J/K/mol
121.37 K, Crystal 2 | 108.6 J/K/mol
121.81 K, Crystal 2 | 125.5 J/K/mol
121.84 K, Crystal 2 | 120 J/K/mol
121.91 K, Crystal 2 | 126.5 J/K/mol
122.28 K, Crystal 2 | 146.1 J/K/mol
122.69 K, Crystal 2 | 168 J/K/mol
122.76 K, Crystal 2 | 187.7 J/K/mol
123.07 K, Crystal 1 | 165.2 J/K/mol and 227.7 J/K/mol
123.1 K, Crystal 1 | 96.21 J/K/mol
123.1 K, Crystal 2 | 96.21 J/K/mol
123.13 K, Crystal 1 | 176.4 J/K/mol
123.47 K, Crystal 1 | 148 J/K/mol
123.61 K, Crystal 1 | 138.3 J/K/mol
123.92 K, Crystal 1 | 106.3 J/K/mol
124.41 K, Crystal 1 | 99.7 J/K/mol
124.5 K, Crystal 1 | 100.8 J/K/mol
124.56 K, Crystal 1 | 99.57 J/K/mol
124.9 K, Crystal 1 | 99.18 J/K/mol
125.12 K, Crystal 1 | 99.65 J/K/mol
125.39 K, Crystal 1 | 98.8 J/K/mol
125.57 K, Crystal 1 | 98.89 J/K/mol
125.88 K, Crystal 1 | 98.68 J/K/mol
126.03 K, Crystal 1 | 99.11 J/K/mol
126.58 K, Crystal 1 | 99.15 J/K/mol
127.3 K, Crystal 1 | 99.61 J/K/mol
127.57 K, Crystal 1 | 99.64 J/K/mol
129.1 K, Crystal 1 | 100.5 J/K/mol
129.28 K, Crystal 1 | 100.6 J/K/mol
130 K, Crystal 1 | 101 J/K/mol
130.63 K, Crystal 1 | 101.5 J/K/mol
131.26 K, Crystal 1 | 101.8 J/K/mol
132.16 K, Crystal 1 | 102.5 J/K/mol
133.24 K, Crystal 1 | 103.2 J/K/mol
133.7 K, Crystal 1 | 103.5 J/K/mol
135.22 K, Crystal 1 | 104.5 J/K/mol
135.23 K, Crystal 1 | 104.6 J/K/mol
136.76 K, Crystal 1 | 105.6 J/K/mol
137.2 K, Crystal 1 | 105.9 J/K/mol
138.29 K, Crystal 1 | 106.7 J/K/mol
139.19 K, Crystal 1 | 107.3 J/K/mol
139.83 K, Crystal 1 | 107.7 J/K/mol
140 K, Crystal 1 | 107.9 J/K/mol
141.18 K, Crystal 1 | 108.6 J/K/mol
141.36 K, Crystal 1 | 108.7 J/K/mol
142.89 K, Crystal 1 | 109.4 J/K/mol
143.17 K, Crystal 1 | 109.5 J/K/mol
144.42 K, Crystal 1 | 109.9 J/K/mol
145.16 K, Crystal 1 | 110.1 J/K/mol
145.95 K, Crystal 1 | 110.4 J/K/mol
147.16 K, Crystal 1 | 110.9 J/K/mol
147.49 K, Crystal 1 | 111.1 J/K/mol
149.02 K, Crystal 1 | 111.7 J/K/mol
149.15 K, Crystal 1 | 111.8 J/K/mol
150 K, Crystal 1 | 112.2 J/K/mol
150.57 K, Crystal 1 | 112.4 J/K/mol
151.15 K, Crystal 1 | 112.7 J/K/mol
152.11 K, Crystal 1 | 113.3 J/K/mol
153.15 K, Crystal 1 | 113.8 J/K/mol
153.64 K, Crystal 1 | 114.2 J/K/mol
155.14 K, Crystal 1 | 114.9 J/K/mol
155.18 K, Crystal 1 | 114.9 J/K/mol
156.72 K, Crystal 1 | 115.7 J/K/mol
157.14 K, Crystal 1 | 116.1 J/K/mol
158.25 K, Crystal 1 | 116.7 J/K/mol
159.14 K, Crystal 1 | 117.2 J/K/mol
159.79 K, Crystal 1 | 117.6 J/K/mol
160 K, Crystal 1 | 117.7 J/K/mol
161.14 K, Crystal 1 | 118.4 J/K/mol
161.32 K, Crystal 1 | 118.5 J/K/mol
162.86 K, Crystal 1 | 119.5 J/K/mol
163.14 K, Crystal 1 | 119.6 J/K/mol
164.39 K, Crystal 1 | 120.4 J/K/mol
165.15 K, Crystal 1 | 120.8 J/K/mol
165.92 K, Crystal 1 | 121.2 J/K/mol
167.15 K, Crystal 1 | 122 J/K/mol
167.45 K, Crystal 1 | 122.3 J/K/mol
168.98 K, Crystal 1 | 123.2 J/K/mol
169.15 K, Crystal 1 | 123.3 J/K/mol
170 K, Crystal 1 | 123.8 J/K/mol
170.51 K, Crystal 1 | 124.1 J/K/mol
171.16 K, Crystal 1 | 124.6 J/K/mol
172.04 K, Crystal 1 | 125 J/K/mol
173.17 K, Crystal 1 | 125.8 J/K/mol
173.57 K, Crystal 1 | 126 J/K/mol
175.1 K, Crystal 1 | 127 J/K/mol
175.17 K, Crystal 1 | 127 J/K/mol
176.62 K, Crystal 1 | 127.9 J/K/mol
177.18 K, Crystal 1 | 128.3 J/K/mol
178.14 K, Crystal 1 | 128.9 J/K/mol
179.19 K, Crystal 1 | 129.6 J/K/mol
179.67 K, Crystal 1 | 130 J/K/mol
180 K, Crystal 1 | 130.1 J/K/mol
181.19 K, Crystal 1 | 130.9 J/K/mol
181.2 K, Crystal 1 | 130.9 J/K/mol
182.7 K, Crystal 1 | 131.9 J/K/mol
183.21 K, Crystal 1 | 132.2 J/K/mol
184.22 K, Crystal 1 | 132.8 J/K/mol
185.23 K, Crystal 1 | 133.5 J/K/mol
185.74 K, Crystal 1 | 133.8 J/K/mol
187.24 K, Crystal 1 | 134.8 J/K/mol
187.25 K, Crystal 1 | 134.8 J/K/mol
188.76 K, Crystal 1 | 135.8 J/K/mol
189.25 K, Crystal 1 | 136.2 J/K/mol
190 K, Crystal 1 | 136.6 J/K/mol
190.27 K, Crystal 1 | 136.9 J/K/mol
191.27 K, Crystal 1 | 137.4 J/K/mol
191.79 K, Crystal 1 | 137.9 J/K/mol
193.28 K, Crystal 1 | 138.8 J/K/mol
193.3 K, Crystal 1 | 138.9 J/K/mol
194.8 K, Crystal 1 | 139.9 J/K/mol
195.3 K, Crystal 1 | 140.1 J/K/mol
